Test results reported in patent publication US9732032B2, “3-aminocyclopentane carboxamide derivatives” (Merck Patent GmbH, priority 2012, dated 2017).

Target: T1, human recombinant full-length fatty acid synthase (FASN) (Homo sapiens, UniProt P49327)
T1 construct: human recombinant full-length fatty acid synthase; made in house; host or cells: SF9 cells
Test: Biochemical activity testing of human fatty acid synthase FASN (NADPH fluorescence intensity assay)
Conditions: NADPH fluorescence decrease (ex 340 nm / em 460 nm), 30 minutes at room temperature, read-out: IC50 FASN (enzyme assay)
Excerpt: aq (aqueous), h (hour), g (gram), L (liter), mg (milligram), MHz (Megahertz), (melting point), eq (equivalent), mL (milliliter), L (microliter), ACN (acetonitrile), AcOH (acetic acid), CDCl3 (deuterated chloroform), CD3OD (deuterated methanol), CH3CN (acetonitrile), c-hex (cyclohexane), DCC (dicyclohexyl carbodiimide), DCM (dichloromethane), DIC (diisopropyl carbodiimide), DIEA (diisopropylethyl-amine), DMF (dimethylformamide), DMSO (dimethylsulfoxide), DMSO-d6 (deuterated dimethylsulfoxide), EDC (1-(3-dimethyl-amino-propyl)-3-ethylcarbodiimide), ESI (Electro-spray ionization), EtOAc (ethyl acetate), Et2O (diethyl ether), EtOH (ethanol), HATU (dimethylamino-([1,2,3]triazolo[4,5-b]pyridin-3-yloxy)-methylene]-dimethylammonium hexafluorophosphate), HPLC (High Performance Liquid Chromatography), i-PrOH (2-propanol), K2CO3 (potassium carbonate), LC (Liquid Chromatography), MeOH (methanol), MgSO4 (magnesium sulfate), MS (mass spectrometry), MTBE (Methyl tert-butyl ether), NaHCO3 (sodium bicarbonate), NaBH4 (sodium borohydride), NMM (N-methyl morpholine), NMR (Nuclear Magnetic Resonance), PyBOP (benzotriazole-1-yl-oxy-trispyrrolidino-phosphonium hexafluorophosphate), RT (room temperature), Rt (retention time), SPE (solid phase extraction), TBTU (2-(1-H-benzotriazole-1-yl)-1,1,3,3-tetramethyluromium tetrafluoro borate), TEA (triethylamine), TFA (trifluoroacetic acid), THF (tetrahydrofuran), TLC (Thin Layer Chromatography), UV (Ultraviolet). Description of the In Vitro Assays Abbreviations: GST=Glutathione-S-transferase FRET=Fluorescence resonance energy transfer HTRF®=(homogenous time resolved fluorescence) HEPES=4-(2-hydroxyethyl)-1-piperazine ethanesulfonic acid buffer DTT=Dithiothreitol BSA=bovine serum albumin CHAPS=detergent; CHAPS=3[(3-cholamidopropyl)dimethylammonio]-1-propanesulfonate Biochemical Activity Testing of Human Fatty Acid Synthase FASN
Fatty acid synthase FASN is a multifunctional enzyme with seven catalytic activities thereby synthesising long chain fatty acids especially palmitoyl-CoA in the presence of co-factor NADPH starting from the substrates acetyl-CoA and malonyl-CoA. The reductive synthesis is realized by the oxidation of NADPH to NADP. Since NADPH has a high fluorescence intensity quantum yield compared to NADP with excitation at 340 nm and emission at 460 nm, the reaction can be monitored via the decrease in fluorescence intensity. The biochemical FASN activity testing was performed as 384 well two-time-point kinetic fluorescence intensity assay format in Greiner low volume medium binding 384-well black microtiter plates in a total assay volume of 8 μl and was used for high throughput screen. In each well 3 μl 40 nM human recombinant full-length fatty acid synthase (produced in-house in SF9 cells) were dispensed in the following assay buffer: 50 mM potassium phosphate buffer pH 7.0, 0.005% (w/v) BSA, 2 mM Glutathione, 0.02% Tween-20. Then 2 μl of 200 μM NADPH in assay buffer were added, followed by the addition of the test compounds in 10 dilution concentrations starting with 30 μM (final concentration) to get a final DMSO content of 1% (v/v). The mixture was incubated for at least 15 min at room temperature. After the pre-incubation the enzymatic reaction was started by the addition of 2 μl substrate solution (80 μM acetyl-CoA, 240 μM malonyl-CoA). A first fluorescence intensity measurement (time point one) was performed with an Envision multimode reader (Perkin Elmer LAS Germany GmbH) at excitation wavelength 340 nm (lamp mode) and emission wavelength 460 nm. The reaction was incubated for 30 minutes at room temperature. After this the fluorescence intensity was measured again in the Envision using the same parameters as described above (second time point measurement). The data were analysed by subtracting the first time point measurement value from the second time point measurement value (after the enzymatic reaction). The differences of the emission signals were determined. […]

T1 sequence (P49327 whole entry): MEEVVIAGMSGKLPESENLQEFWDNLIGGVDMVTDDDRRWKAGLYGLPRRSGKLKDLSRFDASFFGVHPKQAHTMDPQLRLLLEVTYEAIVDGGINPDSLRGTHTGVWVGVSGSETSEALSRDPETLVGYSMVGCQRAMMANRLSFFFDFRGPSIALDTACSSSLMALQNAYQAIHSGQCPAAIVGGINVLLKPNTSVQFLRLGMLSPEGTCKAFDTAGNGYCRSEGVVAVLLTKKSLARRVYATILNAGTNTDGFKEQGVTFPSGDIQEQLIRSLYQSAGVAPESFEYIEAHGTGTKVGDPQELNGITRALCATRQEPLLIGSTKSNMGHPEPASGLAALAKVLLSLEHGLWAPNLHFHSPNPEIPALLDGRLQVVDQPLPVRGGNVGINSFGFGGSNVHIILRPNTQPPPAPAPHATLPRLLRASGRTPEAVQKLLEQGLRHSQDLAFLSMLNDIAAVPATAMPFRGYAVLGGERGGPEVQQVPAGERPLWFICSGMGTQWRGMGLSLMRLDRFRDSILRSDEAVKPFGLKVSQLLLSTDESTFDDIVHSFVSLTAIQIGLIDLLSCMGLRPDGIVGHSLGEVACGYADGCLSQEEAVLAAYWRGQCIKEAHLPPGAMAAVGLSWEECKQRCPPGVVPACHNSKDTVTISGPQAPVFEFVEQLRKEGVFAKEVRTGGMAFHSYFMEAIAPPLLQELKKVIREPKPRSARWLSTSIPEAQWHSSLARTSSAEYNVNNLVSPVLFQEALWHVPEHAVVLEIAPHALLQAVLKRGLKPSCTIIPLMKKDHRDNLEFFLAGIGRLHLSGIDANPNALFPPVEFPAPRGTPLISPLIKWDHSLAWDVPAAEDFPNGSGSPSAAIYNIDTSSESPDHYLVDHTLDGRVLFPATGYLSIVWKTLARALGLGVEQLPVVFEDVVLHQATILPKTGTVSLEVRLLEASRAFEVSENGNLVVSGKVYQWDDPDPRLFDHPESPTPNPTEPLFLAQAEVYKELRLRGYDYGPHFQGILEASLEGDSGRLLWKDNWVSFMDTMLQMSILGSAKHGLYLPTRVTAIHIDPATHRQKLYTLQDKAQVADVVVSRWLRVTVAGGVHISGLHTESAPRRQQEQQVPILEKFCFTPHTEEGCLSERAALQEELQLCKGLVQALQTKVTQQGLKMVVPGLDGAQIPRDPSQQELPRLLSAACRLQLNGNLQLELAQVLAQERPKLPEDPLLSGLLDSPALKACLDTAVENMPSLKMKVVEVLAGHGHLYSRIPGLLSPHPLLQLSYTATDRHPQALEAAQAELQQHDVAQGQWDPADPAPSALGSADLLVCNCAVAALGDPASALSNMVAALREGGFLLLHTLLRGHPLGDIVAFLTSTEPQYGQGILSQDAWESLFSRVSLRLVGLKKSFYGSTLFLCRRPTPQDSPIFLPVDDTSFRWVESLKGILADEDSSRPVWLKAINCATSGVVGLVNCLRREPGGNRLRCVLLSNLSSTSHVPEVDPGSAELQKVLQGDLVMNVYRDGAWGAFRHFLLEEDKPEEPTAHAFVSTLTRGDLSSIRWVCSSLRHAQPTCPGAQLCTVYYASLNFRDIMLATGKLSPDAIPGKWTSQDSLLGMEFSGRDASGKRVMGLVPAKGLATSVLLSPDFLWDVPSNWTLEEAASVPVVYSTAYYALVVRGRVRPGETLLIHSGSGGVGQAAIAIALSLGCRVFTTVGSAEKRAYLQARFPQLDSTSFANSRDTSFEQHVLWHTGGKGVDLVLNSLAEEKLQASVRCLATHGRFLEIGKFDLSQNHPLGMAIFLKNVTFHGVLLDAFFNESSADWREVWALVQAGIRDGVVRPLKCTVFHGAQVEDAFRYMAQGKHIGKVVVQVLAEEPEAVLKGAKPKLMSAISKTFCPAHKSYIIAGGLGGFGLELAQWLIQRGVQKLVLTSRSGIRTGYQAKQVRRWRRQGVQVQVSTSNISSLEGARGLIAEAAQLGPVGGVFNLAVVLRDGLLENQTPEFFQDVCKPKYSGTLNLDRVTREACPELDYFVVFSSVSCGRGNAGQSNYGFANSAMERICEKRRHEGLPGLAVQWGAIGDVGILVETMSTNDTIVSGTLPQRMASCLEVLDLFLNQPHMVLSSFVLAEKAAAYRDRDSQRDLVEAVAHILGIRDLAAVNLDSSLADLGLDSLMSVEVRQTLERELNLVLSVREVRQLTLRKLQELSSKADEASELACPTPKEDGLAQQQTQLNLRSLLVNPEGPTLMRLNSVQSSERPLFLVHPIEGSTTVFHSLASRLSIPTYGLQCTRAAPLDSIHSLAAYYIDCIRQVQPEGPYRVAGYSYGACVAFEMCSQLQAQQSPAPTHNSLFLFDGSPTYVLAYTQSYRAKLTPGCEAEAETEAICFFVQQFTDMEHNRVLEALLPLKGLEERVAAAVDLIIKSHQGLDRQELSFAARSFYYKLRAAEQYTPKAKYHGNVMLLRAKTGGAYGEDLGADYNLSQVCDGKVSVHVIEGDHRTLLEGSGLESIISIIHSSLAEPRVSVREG

For `CCNC(=O)[C@H]1CC[C@@H](N(C)C(=O)c2ccc(-c3cccnc3)cc2)C1` [Compound A102, N-((1R,3S)-3-ethylcarbamoyl-cyclopentyl)-N-methyl-4-pyridin-3-yl-benzamide], which IC50 is on record?
The IC50 was < 300 nM.

`CCNC(=O)[C@H]1CC[C@@H](N(C)C(=O)c2ccc(-c3nc4cc(F)c(F)cc4o3)cc2)C1` [Compound A101, 4-(5,6-difluoro-benzoxazol-2-yl)-N-((1R,3S)-3-ethylcarbamoyl-cyclopentyl)-N-methyl-benzamide] was tested. Which IC50 did it give?
The IC50 was < 300 nM.

`CN(C(=O)c1ccc(-c2nc3ccccc3o2)cc1)[C@@H]1CC[C@H](C(=O)NC2CCC2)C1` [Compound A76, 4-(1,3-benzoxazol-2-yl)-N-[(1R,3S)-3-(cyclobutylcarbamoyl)cyclopentyl]-N-methyl-benzamide] was tested. Which IC50 did it give?
The IC50 was < 300 nM.

For `CCNC(=O)[C@H]1CC[C@@H](N(C)C(=O)c2ccc(-c3nc4cc(F)cc(F)c4o3)cc2)C1` [Compound A96, 4-(5,7-difluoro-benzoxazol-2-yl)-N-((1R,3S)-3-ethylcarbamoyl-cyclopentyl)-N-methyl-benzamide], which IC50 is on record?
Its IC50 is < 300 nM.

How did the IC50 turn out when `CCNC(=O)[C@H]1CC[C@@H](N(C)C(=O)c2ccc(-c3nc4ccccc4o3)cc2)C1` [Compound A1, 4-(1,3-benzoxazol-2-yl)-N-[(1R,3S)-3-(ethylcarbamoyl)cyclopentyl]-N-methyl-benzamide] was run?
Its IC50 is < 300 nM.

`CCCC1(NC(=O)[C@H]2CC[C@@H](N(C)C(=O)c3ccc(-c4nc5ccccc5o4)cc3)C2)CC1` [Compound A73, 4-benzoxazol-2-yl-N-methyl-N-[(1R,3S)-3-(1-propyl-cyclopropylcarbamoyl)-cyclopentyl]-benzamide] was tested. Which IC50 did it give?
Its IC50 is 300 to 3000 nM.

`CN(C(=O)c1ccc(-c2nc3ccccc3o2)cc1)[C@@H]1CC[C@H](C(=O)NC2CCCC2)C1` [Compound A7, 4-benzoxazol-2-yl-N-((1R,3S)-3-cyclopentylcarbamoyl-cyclopentyl)-N-methyl-benzamide] was tested. Which IC50 did it give?
Its IC50 is < 300 nM.

`CN(C(=O)c1ccc(-c2nc3ccccc3s2)cc1)[C@@H]1CC[C@H](C(=O)NC2(C)CC2)C1` [Compound A71, 4-benzothiazol-2-yl-N-methyl-N-[(1R,3S)-3-(1-methyl-cyclopropylcarbamoyl)-cyclopentyl]-benzamide] was tested. Which IC50 did it give?
Its IC50 is < 300 nM.

`CCNC(=O)[C@H]1CC[C@@H](N(C)C(=O)c2ccc(-c3ccccc3)cc2Cl)C1` [Compound A51, 3-chloro-biphenyl-4-carboxylic acid ((1R,3S)-3-ethylcarbamoyl-cyclopentyl)-methyl-amide] was tested. Which IC50 did it give?
The IC50 was < 300 nM.

Which IC50 does the source give for `CCNC(=O)[C@H]1CC[C@@H](N(C)C(=O)c2ccc(-c3ccccc3C(F)(F)F)cc2)C1` [Compound A64, 2′-trifluoromethyl-biphenyl-4-carboxylic acid ((1R,3S)-3-ethylcarbamoyl-cyclopentyl)-methyl-amide] here?
Its IC50 is < 300 nM.

Which IC50 does the source give for `CN(C(=O)c1ccc(-c2nc3ccccc3o2)cc1)[C@@H]1CC[C@H](C(=O)NCCO)C1` [Compound A106, 4-benzoxazol-2-yl-N-[(1R,3S)-3-(2-hydroxy-ethylcarbamoyl)-cyclopentyl]-N-methyl-benzamide] here?
The IC50 was < 300 nM.

For `CN(C(=O)c1ccc(-c2nc3ccccc3o2)cc1)[C@@H]1CC[C@H](C(=O)N[C@H]2C[C@@H](O)C2)C1` [Compound A78, 4-(1,3-benzoxazol-2-yl)-N-[(1R,3S)-3-[(cis-3-hydroxycyclobutyl)-carbamoyl]cyclopentyl]-N-methyl-benzamide], which IC50 is on record?
Its IC50 is < 300 nM.

For `CCNC(=O)[C@H]1CC[C@@H](N(C)C(=O)c2ccc(-c3ccc(F)cc3)cc2)C1` [Compound A104, 4′-fluoro-biphenyl-4-carboxylic acid ((1R,3S)-3-ethylcarbamoyl-cyclopentyl)-methyl-amide], which IC50 is on record?
Its IC50 is < 300 nM.

Which IC50 does the source give for `CN(C(=O)c1ccc(-c2ccncc2)cc1)[C@@H]1CC[C@H](C(=O)NC2(C)CC2)C1` [Compound A80, N-methyl-N-[(1R,3S)-3-[(1-methylcyclopropyl)carbamoyl]cyclopentyl]-4-(4-pyridyl)benzamide] here?
The IC50 was < 300 nM.

Which IC50 does the source give for `C[C@@H](CO)NC(=O)[C@H]1CC[C@@H](N(C)C(=O)c2ccc(-c3nc4ccccc4o3)cc2)C1` [Compound A90, 4-benzoxazol-2-yl-N-[(1R,3S)-3-((S)-2-hydroxy-1-methyl-ethylcarbamoyl)-cyclopentyl]-N-methyl-benzamide] here?
Its IC50 is 300 to 3000 nM.

For `CCNC(=O)[C@H]1CC[C@@H](N(C)C(=O)c2ccc(C#Cc3ccncc3)cc2)C1` [Compound A70, N-((1R,3S)-3-ethylcarbamoyl-cyclopentyl)-N-methyl-4-pyridin-4-ylethynyl-benzamide], which IC50 is on record?
The IC50 was < 300 nM.

For `COc1cc(C(=O)N(C)[C@@H]2CC[C@H](C(=O)NC3(C)CC3)C2)ccc1-c1nc2ccccc2o1` [Compound A85, 4-benzoxazol-2-yl-3-methoxy-N-methyl-N-[(1R,3S)-3-(1-methyl-cyclopropylcarbamoyl)-cyclopentyl]-benzamide], which IC50 is on record?
Its IC50 is < 300 nM.

With `CCNC(=O)[C@H]1CC[C@@H](N(C)C(=O)c2ccc(-c3noc(C)n3)cc2)C1` [Compound A88, N-((1R,3S)-3-ethylcarbamoyl-cyclopentyl)-N-methyl-4-(5-methyl-[1,2,4]oxadiazol-3-yl)-benzamide] as the compound, how does the IC50 read?
Its IC50 is 3000 to 50000 nM.

For `CN(C(=O)c1ccc(-c2nc3ccccc3o2)cc1)[C@@H]1CC[C@H](C(=O)NC2(C)CCC2)C1` [Compound A84, 4-benzoxazol-2-yl-N-methyl-N-[(1R,3S)-3-(1-methyl-cyclobutylcarbamoyl)-cyclopentyl]-benzamide], which IC50 is on record?
Its IC50 is < 300 nM.

With `CCNC(=O)[C@H]1CC[C@@H](N(C)C(=O)c2ccc(-c3cccc4[nH]ncc34)cc2)C1` [Compound A107, N-((1R,3S)-3-ethylcarbamoyl-cyclopentyl)-4-(1H-indazol-4-yl)-N-methyl-benzamide] as the compound, how does the IC50 read?
The IC50 was < 300 nM.

How did the IC50 turn out when `CCNC(=O)[C@H]1CC[C@@H](N(C)C(=O)c2ccc(-c3nc4cc(S(N)(=O)=O)ccc4o3)cc2)C1` [Compound A93, N-((1R,3S)-3-ethylcarbamoyl-cyclopentyl)-N-methyl-4-(5-sulfamoyl-benzooxazol-2-yl)-benzamide] was run?
Its IC50 is 3000 to 50000 nM.

Which IC50 does the source give for `CCNC(=O)[C@H]1CC[C@@H](N(C)C(=O)c2ccc(-c3ccc(C#N)cc3)cc2)C1` [Compound A103, 4′-cyano-biphenyl-4-carboxylic acid ((1R,3S)-3-ethylcarbamoyl-cyclopentyl)-methyl-amide] here?
Its IC50 is < 300 nM.

For `CCNC(=O)[C@H]1CC[C@@H](N(C)C(=O)c2ccc(-c3cn4ccc(C#N)cc4n3)cc2)C1` [Compound A87, 4-(7-cyano-imidazo[1,2-a]pyridin-2-yl)-N-((1R,3S)-3-ethylcarbamoyl-cyclopentyl)-N-methyl-benzamide], which IC50 is on record?
The IC50 was 300 to 3000 nM.

With `CN(C)C(=O)[C@H]1CC[C@@H](N(C)C(=O)c2ccc(-c3nc4ccccc4o3)cc2)C1` [Compound A82, 4-benzoxazol-2-yl-N-((1R,3S)-3-dimethylcarbamoyl-cyclopentyl)-N-methyl-benzamide] as the compound, how does the IC50 read?
Its IC50 is 300 to 3000 nM.

For `CCNC(=O)[C@H]1CC[C@@H](N(C)C(=O)c2ccc(-c3nc4ccccc4o3)c(OC)c2)C1` [Compound A45, 4-benzoxazol-2-yl-N-((1R,3S)-3-ethylcarbamoyl-cyclopentyl)-3-methoxy-N-methyl-benzamide], which IC50 is on record?
The IC50 was < 300 nM.

With `CCNC(=O)[C@H]1CC[C@@H](N(C)C(=O)c2ccc(-c3ccncc3)cc2)C1` [Compound A56, N-((1R,3S)-3-ethylcarbamoyl-cyclopentyl)-N-methyl-4-pyridin-4-yl-benzamide] as the compound, how does the IC50 read?
The IC50 was < 300 nM.
